This assay deals with L1210 leukemia ip in BDF1 mice, survival T/C. Kind of assay: NCI In Vivo Anticancer Drug Screen. Data for tumor model L1210 Leukemia (intraperitoneal) in B6D2F1 (BDF1) mice. The following applies: endpoint: mean survival time, higher = longer survival. The gist of the method: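 In this screen, tumor-bearing mice given compound are compared to those given vehicle, and their survival values are reported as a treated-to-control quotient.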

[1] abbreviates: dose: 100.0 mg/kg/injection, schedule: Q01DX009 (ip), vehicle: Klucel (hydroxypropylcellulose) (HPC).
[2] abbreviates: dose: 100.0 mg/kg/injection, schedule: Q04DX003 (ip), vehicle: Klucel (hydroxypropylcellulose) (HPC).
[3] abbreviates: dose: 200.0 mg/kg/injection, schedule: Q01DX009 (ip), vehicle: Klucel (hydroxypropylcellulose) (HPC).
[4] abbreviates: dose: 200.0 mg/kg/injection, schedule: Q04DX003 (ip), vehicle: Klucel (hydroxypropylcellulose) (HPC).
The mark [5] stands for this setting: dose: 400.0 mg/kg/injection, schedule: Q01DX009 (ip), vehicle: Klucel (hydroxypropylcellulose) (HPC).
Where [6] appears, read: dose: 400.0 mg/kg/injection, schedule: Q04DX003 (ip), vehicle: Klucel (hydroxypropylcellulose) (HPC).
[7] abbreviates: dose: 25.0 mg/kg/injection, schedule: Q04DX003 (ip), vehicle: saline with Tween-80.
Setting [8] is: dose: 50.0 mg/kg/injection, schedule: Q04DX003 (ip), vehicle: saline with Tween-80.
[9] abbreviates: dose: 100.0 mg/kg/injection, schedule: Q01DX001 (ip), vehicle: saline with Tween-80.
Setting [10] is: dose: 100.0 mg/kg/injection, schedule: Q04DX003 (ip), vehicle: saline with Tween-80.
Where [11] appears, read: dose: 200.0 mg/kg/injection, schedule: Q04DX003 (ip), vehicle: saline with Tween-80.
The mark [12] stands for this setting: dose: 400.0 mg/kg/injection, schedule: Q04DX003 (ip), vehicle: saline with Tween-80.
Setting [13] is: dose: 200.0 mg/kg/injection, schedule: Q01DX001 (ip), vehicle: saline with Tween-80.
Where [14] appears, read: dose: 400.0 mg/kg/injection, schedule: Q01DX001 (ip), vehicle: saline with Tween-80.

Several values for one entry are separate records, joined by “and”; a condition that tells them apart may be missing. Equal values may be shown once. Inconclusive results and toxic doses are left out.

As to `[N-]=[N+]=NC1=C(Cl)C(=O)c2ccccc2C1=O`, the T/C was 101 % of control (dose: 6.25 mg/kg/injection, schedule: Q04DX002 (ip), vehicle: saline with Tween-80); 96 % of control (dose: 12.5 mg/kg/injection, schedule: Q04DX002 (ip), vehicle: saline with Tween-80); 96 % of control (dose: 25.0 mg/kg/injection, schedule: Q04DX002 (ip), vehicle: saline with Tween-80).

For the molecule `Cc1ccc(N=Cc2ccccc2)cc1`, the T/C reads like this: under setting [1], 104 % of control; under setting [2], 95 % of control; under setting [3], 107 % of control; under setting [4], 101 % of control; under setting [5], 104 % of control; under setting [6], 101 % of control.

`Cc1nn(C)c2c(N)ncnc12`: the T/C (dose: 75.0 mg/kg/injection, schedule: Q01DX001 (ip), vehicle: other) is 100 % of control; the T/C (dose: 150.0 mg/kg/injection, schedule: Q01DX001 (ip), vehicle: other) is 102 % of control; the T/C (dose: 300.0 mg/kg/injection, schedule: Q01DX001 (ip), vehicle: other) was 98 % of control.

For `O=S(=O)(Cl)OC1C2COC(O2)C(OS(=O)(=O)Cl)C1OS(=O)(=O)Cl` (configuration not stated), the T/C (dose: 12.5 mg/kg/injection, schedule: Q04DX003 (ip), vehicle: saline with Tween-80) is 102 % of control; the T/C under setting [7] was 92 % of control; the T/C under setting [8] is 96 % of control.

Consider `Nc1ncnc2nc(-c3cccc(CNC(=O)c4ccccc4S(=O)(=O)F)c3)[nH]c12`, for which the T/C is 93 % of control (dose: 25.0 mg/kg/injection, schedule: Q01DX001 (ip), vehicle: saline with Tween-80); 88 % of control (dose: 50.0 mg/kg/injection, schedule: Q01DX001 (ip), vehicle: saline with Tween-80); 87 % of control under setting [9].

With `O=c1cc(-c2ccccc2)c2ccc(O)cc2o1`, the T/C under setting [10] was 95 % of control, the T/C under setting [11] is 101 % of control and the T/C under setting [12] was 93 % of control.

On to `CC[As](=O)(O)CC(C)C`, for which the T/C (dose: 100.0 mg/kg/injection, schedule: Q01DX009 (ip), vehicle: saline) is 96 % of control.

Consider `CCOC(=O)c1c(-c2cc(OC)c(OC)c(OC)c2)csc1NC(=O)c1ccccc1`, for which the T/C under setting [8] was 89 % of control, the T/C under setting [10] was 105 % of control, the T/C under setting [11] was 90 % of control and the T/C under setting [12] is 90 % of control.

With `O=C(CI)NCc1ccccc1`, the T/C (dose: 75.0 mg/kg/injection, schedule: Q01DX001 (ip), vehicle: saline) is 96 % of control.

As for `O=C(COc1ccc(Cl)cc1Cl)Nc1ccc2ccccc2c1S(=O)(=O)O`, the T/C by setting is: (dose: 25.0 mg/kg/injection, schedule: Q04DX002 (ip), vehicle: Klucel (hydroxypropylcellulose) (HPC)) 112 % of control; (dose: 50.0 mg/kg/injection, schedule: Q04DX002 (ip), vehicle: Klucel (hydroxypropylcellulose) (HPC)) 98 % of control; (dose: 100.0 mg/kg/injection, schedule: Q04DX002 (ip), vehicle: Klucel (hydroxypropylcellulose) (HPC)) 94 % of control.

Turning to `CNc1c(C)cc(C)c(NC)c1C`, for the setting “dose: 100.0 mg/kg/injection, schedule: Q04DX002 (ip), vehicle: saline with Tween-80”, the T/C is 107 % of control.

`CSC(SC)C(O)C(O)C(O)C(O)CO` (configuration not stated): the T/C (dose: 50.0 mg/kg/injection, schedule: Q04DX002 (ip), vehicle: saline) is 103 % of control; the T/C (dose: 100.0 mg/kg/injection, schedule: Q04DX002 (ip), vehicle: saline) is 113 % of control; the T/C (dose: 200.0 mg/kg/injection, schedule: Q04DX002 (ip), vehicle: saline) is 92 % of control.

Consider `N#Cc1cn(C2CCCCC2)c2ncccc12`, for which the T/C is 90 % of control under setting [7], 97 % of control under setting [8] and 93 % of control under setting [10].

As to `CCC(=O)Nc1ccc(F)cc1`, the T/C was 105 % of control (dose: 100.0 mg/kg/injection, schedule: Q01DX001 (ip), vehicle: Klucel (hydroxypropylcellulose) (HPC)); 99 % of control under setting [1]; 94 % of control under setting [2]; 99 % of control (dose: 200.0 mg/kg/injection, schedule: Q01DX001 (ip), vehicle: Klucel (hydroxypropylcellulose) (HPC)); 113 % of control under setting [3]; 94 % of control under setting [4]. For the same molecule, the T/C runs as follows: (dose: 400.0 mg/kg/injection, schedule: Q01DX001 (ip), vehicle: Klucel (hydroxypropylcellulose) (HPC)) 93 % of control; under setting [5], 120 % of control; under setting [6], 105 % of control.

`COc1cc(C(=O)Nc2ccc(C3=NCCN3)cc2)ccc1C(=O)Nc1ccc(C2=NCCN2)cc1`: the T/C reads like this: (dose: 15.0 mg/kg/injection, schedule: Q01DX Z (ip), vehicle: saline) 159 % of control and 172 % of control; (dose: 30.0 mg/kg/injection, schedule: Q01DX Z (ip), vehicle: saline) 212 % of control; (dose: 60.0 mg/kg/injection, schedule: Q01DX010 (oral), vehicle: saline) 101 % of control; (dose: 60.0 mg/kg/injection, schedule: Q01DX Z (ip), vehicle: saline) 188 % of control; (dose: 120.0 mg/kg/injection, schedule: Q01DX010 (oral), vehicle: saline) 104 % of control; (dose: 240.0 mg/kg/injection, schedule: Q01DX010 (oral), vehicle: saline) 98 % of control.

For `CCOC(=O)C(=N\Nc1ccccc1OC)/C(C)=N\NC(N)=S`, the T/C is, setting by setting: (dose: 75.0 mg/kg/injection, schedule: Q01DX001 (ip), vehicle: acetone) 93 % of control; (dose: 150.0 mg/kg/injection, schedule: Q01DX001 (ip), vehicle: acetone) 90 % of control; (dose: 150.0 mg/kg/injection, schedule: Q01DX001 (ip), vehicle: saline) 94 % of control.

As to `CC(C)=CCC(CCN(C)C)(C(N)=O)c1ccc2ccccc2c1` (configuration not stated), the T/C (dose: 12.5 mg/kg/injection, schedule: Q01DX009 (ip), vehicle: Klucel (hydroxypropylcellulose) (HPC)) is 93 % of control; the T/C (dose: 25.0 mg/kg/injection, schedule: Q01DX009 (ip), vehicle: Klucel (hydroxypropylcellulose) (HPC)) is 86 % of control; the T/C (dose: 50.0 mg/kg/injection, schedule: Q01DX009 (ip), vehicle: Klucel (hydroxypropylcellulose) (HPC)) is 91 % of control.

In the case of `CCOC(=O)C(C)C(=O)Cc1cc(OC)c(C)cc1Br` (configuration not stated), the T/C runs as follows: (dose: 100.0 mg/kg/injection, schedule: Q01DX009 (ip), vehicle: saline with Tween-80) 97 % of control; under setting [10], 97 % of control; (dose: 200.0 mg/kg/injection, schedule: Q01DX009 (ip), vehicle: saline with Tween-80) 100 % of control; under setting [11], 95 % of control; (dose: 400.0 mg/kg/injection, schedule: Q01DX009 (ip), vehicle: saline with Tween-80) 105 % of control; under setting [12], 109 % of control.

With `CC1(C)CN(CCC#N)C(c2ccc([N+](=O)[O-])cc2)O1` (configuration not stated), the T/C is 106 % of control (dose: 50.0 mg/kg/injection, schedule: Q01DX001 (ip), vehicle: carboxymethylcellulose (CMC)); 106 % of control (dose: 100.0 mg/kg/injection, schedule: Q01DX001 (ip), vehicle: carboxymethylcellulose (CMC)); 114 % of control (dose: 200.0 mg/kg/injection, schedule: Q01DX001 (ip), vehicle: carboxymethylcellulose (CMC)); 108 % of control (dose: 400.0 mg/kg/injection, schedule: Q01DX001 (ip), vehicle: carboxymethylcellulose (CMC)).

In the case of `CC(/C=C/c1ccccc1Cl)=N\NC(=O)c1ccncc1`, the T/C under setting [9] was 95 % of control, the T/C under setting [13] is 95 % of control and the T/C under setting [14] is 90 % of control.

For the molecule `CCOC(=O)CCC(NC(=O)c1cnc(N)s1)C(=O)OCC` (configuration not stated), the T/C is, setting by setting: (dose: 44.0 mg/kg/injection, schedule: Q01DX001 (ip), vehicle: saline with Tween-80) 97 % of control; (dose: 66.0 mg/kg/injection, schedule: Q01DX001 (ip), vehicle: saline with Tween-80) 97 % of control; under setting [9], 97 % of control; (dose: 150.0 mg/kg/injection, schedule: Q01DX001 (ip), vehicle: saline with Tween-80) 101 % of control; under setting [13], 93 % of control; under setting [14], 102 % of control.

The record behind these values is PubChem BioAssay AID248 (DTP/NCI, 2004).
